Source: BindingDB's records for doi:10.1016/j.bioorg.2016.09.004 (North-West University, 2016)

How the values were obtained:
[1] = biological target: T1, Amine oxidase [flavin-containing] A (Homo sapiens, UniProt P21397); test: MAO-A and MAO-B Fluorescence Assay; conditions: pH 7.4
T1 sequence (P21397 whole entry): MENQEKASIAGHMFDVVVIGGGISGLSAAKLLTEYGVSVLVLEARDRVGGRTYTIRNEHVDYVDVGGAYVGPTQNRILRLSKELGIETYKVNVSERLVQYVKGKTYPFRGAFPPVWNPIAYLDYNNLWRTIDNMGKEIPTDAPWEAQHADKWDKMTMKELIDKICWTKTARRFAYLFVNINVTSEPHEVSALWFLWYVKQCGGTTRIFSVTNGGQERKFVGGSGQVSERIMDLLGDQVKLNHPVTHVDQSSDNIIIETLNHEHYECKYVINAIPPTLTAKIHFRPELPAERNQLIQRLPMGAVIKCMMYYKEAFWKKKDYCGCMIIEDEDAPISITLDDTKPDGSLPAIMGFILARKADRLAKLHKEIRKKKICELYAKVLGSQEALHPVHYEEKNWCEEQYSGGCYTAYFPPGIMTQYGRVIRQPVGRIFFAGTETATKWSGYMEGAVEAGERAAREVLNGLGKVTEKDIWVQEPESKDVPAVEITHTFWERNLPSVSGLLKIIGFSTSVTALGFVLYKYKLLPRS
Description: (§1) Recombinant human MAO-A and MAO-B were used for these studies and kynuramine served as enzyme substrate. Kynuramine is oxidised by both MAO isoforms to yield 4-hydroxyquinoline as ultimate product. For the enzyme reactions MAO-A (0.0075 mg/mL) or MAO-B (0.015 mg/mL), the substrate (50 μM) and the test inhibitors (0.003-100 μM) were combined and incubated for 20 min. For this purpose potassium phosphate buffer (pH 7.4, 100 mM) served as solvent. At endpoint the reactions were alkalinised (NaOH) and the fluorescence intensity of 4-hydroxyquinoline was measured (kex = 310 nm; kem = 400 nm).

[2] = biological target: T2, Amine oxidase [flavin-containing] B (Homo sapiens, UniProt P27338); test: MAO-A and MAO-B Fluorescence Assay; conditions: pH 7.4
T2 sequence (P27338 whole entry): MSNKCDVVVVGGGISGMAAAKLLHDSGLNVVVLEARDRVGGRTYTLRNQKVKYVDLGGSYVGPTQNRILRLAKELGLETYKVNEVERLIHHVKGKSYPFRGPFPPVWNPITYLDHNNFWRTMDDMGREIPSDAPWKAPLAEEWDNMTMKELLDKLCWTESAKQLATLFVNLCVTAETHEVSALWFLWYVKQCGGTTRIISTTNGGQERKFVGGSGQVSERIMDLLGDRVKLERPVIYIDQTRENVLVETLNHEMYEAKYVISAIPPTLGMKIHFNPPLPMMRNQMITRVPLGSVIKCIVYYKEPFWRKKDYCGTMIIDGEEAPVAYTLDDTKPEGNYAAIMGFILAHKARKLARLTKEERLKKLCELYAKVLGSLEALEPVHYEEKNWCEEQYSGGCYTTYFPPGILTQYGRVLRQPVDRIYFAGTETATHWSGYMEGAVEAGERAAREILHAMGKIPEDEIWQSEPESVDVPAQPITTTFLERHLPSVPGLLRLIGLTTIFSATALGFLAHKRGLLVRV
Description: as §1

SMILES	IC50 [1] [nM]	IC50 [2] [nM]
O=C1/C(=C/c2cccnc2Cl)Cc2ccccc21 [(2E)-2-[(2-Chloropyridin-3-yl)methylidene]-2,3-dihydro-1Hinden-1-one (11e)]	471	465
O=C1/C(=C/c2cccs2)Cc2ccccc21 [(2E)-2-(Thiophen-2-ylmethylidene)-2,3-dihydro-1H-inden-1-one (11h)]	1330	418
O=C1/C(=C/c2cccnc2)Cc2ccccc21 [(2E)-2-(Pyridin-3-ylmethylidene)-2,3-dihydro-1H-inden-1-one (11a)]	61	1270
COc1ccc2c(c1)C/C(=C\C1CCCCC1)C2=O [(2E)-2-(Cyclohexylmethylidene)-5-methoxy-2,3-dihydro-1Hinden-1-one (11m)]	–	139
O=C1/C(=C/c2ccco2)Cc2ccccc21	1200	889
O=C1/C(=C/c2ccsc2)Cc2ccccc21 [(2E)-2-(Thiophen-3-ylmethylidene)-2,3-dihydro-1H-inden-1-one (11k)]	1510	114
COc1ccc2c(c1)C/C(=C\c1cccnc1)C2=O [(2E)-5-Methoxy-2-(pyridin-3-ylmethylidene)-2,3-dihydro-1Hinden-1-one (11b)]	8550	338
O=C1/C(=C/c2ccccn2)Cc2ccccc21 [(2E)-2-(Pyridin-2-ylmethylidene)-2,3-dihydro-1H-inden-1-one (11c)]	853	1530
COc1ccc2c(c1)C/C(=C\c1ccco1)C2=O [(2E)-2-(Furan-2-ylmethylidene)-5-methoxy-2,3-dihydro-1Hinden-1-one (11g)]	2330	394
COc1ccc2c(c1)C/C(=C\c1ccc(C)o1)C2=O [(2E)-5-Methoxy-2-[(5-methylfuran-2-yl)methylidene]-2,3-dihydro-1H-inden-1-one (11n)]	4730	26
COc1ccc2c(c1)C/C(=C\c1ccccn1)C2=O [(2E)-5-Methoxy-2-(pyridin-2-ylmethylidene)-2,3-dihydro-1Hinden-1-one (11d)]	302	112
O=C1/C(=C/C2CCCCC2)Cc2ccccc21 [(2E)-2-(Cyclohexylmethylidene)-2,3-dihydro-1H-inden-1-one (11l)]	5210	229
COc1ccc2c(c1)C/C(=C\c1ccc(Br)o1)C2=O [(2E)-2-[(5-Bromofuran-2-yl)methylidene]-5-methoxy-2,3-dihydro-1H-inden-1-one (11o)]	183	4.4
COc1ccc2c(c1)C/C(=C\c1cccs1)C2=O [(2E)-5-Methoxy-2-(thiophen-2-ylmethylidene)-2,3-dihydro-1H-inden-1-one (11i)]	5180	114
